# Reference: patent US9434693B2, “Substituted pyrazoles as N-type calcium channel blockers” (Janssen Pharmaceutica NV, priority 2012, dated 2016)
# Like-named read-outs stand apart in the source and are kept apart here.
# Experiments:
# [1] = target: N-type calcium channel (α1B (Cav2.2), β3 and α2δ subunits) in stable HEK cell line (Homo sapiens (Human), UniProt Q00975); experiment: Functional assay (FDSS calcium mobilization): antagonism of N-type calcium channel; format: cell-based; settings: for inhibition at 0.33 µM: HEK293, FDSS, 0.33 μM compound; for IC50: KCl (50 mM) depolarization, six-point concentration-response
# Method: A stable cell line (HEK parent) co-expressing the α1B (Cav2.2), β3 and α2δ subunits of the N-type calcium channel subunits was used. These cells were routinely grown as monolayers in low glucose-containing Dulbecco's Modified Eagle Medium supplemented with 10% FBS, 2 mM L-glutamine, 100 I.U./mL penicillin, 100 μg/mL streptomycin, 400 μg/mL G418 and 200 μg/mL Zeocin (split ratio=1:5). Cells were maintained in 5% CO2 at 37° C. Compounds of Formula (I) were prepared as 10 mM stocks in DMSO from neat compound, if available. Otherwise, the 5 or 10 mM DMSO stock solutions provided in-house were used.
# Calcium mobilization responses to KCl depolarization were evaluated by measuring the intensity of calcium-mediated fluorescent signal in the presence of BD Calcium Assay Dye (BD Biosciences, Franklin Lakes, N.J., U.S.A.), utilizing a Functional Drug Screening System (FDSS) by Hamamatsu Corporation (Bridgewater, N.J. U.S.A.).
# Twenty-four hr prior to assay, cells were seeded in clear-base poly-D-lysine-coated 384-well plates (BD Biosciences) at a density of 5,000 cells per well in culture medium and grown overnight in 5% CO2 at 37° C. On the day of assay, growth media were removed, and cells were loaded with BD calcium assay dye (BD Biosciences) for 35 min at 37° C. under 5% CO2 and then for 25 min at room temp. Utilizing the FDSS, cells were exposed to representative compounds of Formula (I) at varying concentrations, and intracellular calcium was measured for 5 min prior to the addition of 50 mM KCl for an additional 3 min of measurement.
# IC50 values for representative compounds of Formula (I) were determined from six-point concentration-response experiments and represent the concentration of said compound required to inhibit 50% of the maximal response. Maximal fluorescence intensity (FI) achieved upon addition of 50 mM KCl was exported from the FDSS software and further analyzed using GraphPad Prism 3.02 (Graph Pad Software Inc., San Diego, Calif., U.S.A.). Data were normalized to the maximum average counts from quadruplicate wells for each condition in the presence of 50 mM KCl and to the minimum average counts in the presence of buffer. Theoretical curves were generated using nonlinear regression curve-fitting analysis of either sigmoidal concentration-response or sigmoidal concentration-response (variable slope), and the IC50 values with the best-fit curve determined by GraphPad Prism were reported.
# N-type calcium channel = N-type calcium channel (Homo sapiens (Human), UniProt Q00975); experiment: Automated electrophysiology assay (QPatch-HT whole-cell patch clamp); format: cell-based
# Method: Cells were grown in T175 flasks to 50%-90% confluence. At the time of use, cells were enzymatically treated with Detachin (Genlantis, San Diego, Calif. USA), centrifuged, rinsed, and resuspended in 293 SFM II media (Life Technologies, Grand Island, N.Y. U.S.A.) supplemented with 25 mM HEPES (Sigma-Aldrich, St. Louis, Mo. U.S.A.) to a concentration of 2-3×10^6 cells/mL. Cells were added to the automated cell preparation station on the QPatch-HT (Sophion Biosciences, North Brunswick, N.J. U.S.A.), and following a 10- to30-min recovery period with gentle stirring, the assay protocol was initiated. During the automated cell preparation, cells were collected, centrifuged and resuspended in an extracellular (EC) solution containing 132 mM NaCl, 1.8 mM CaCl2, 5.4 mM KCl, 0.8 mM MgCl2, 10 mM glucose, and 10 mM HEPES (pH=7.4), adjusted with sucrose to approximately 315 m0sm. The QPlate was primed with an intracellular solution containing 135 mM CsCl, 10 mM EGTA, 4 MgATP, 0.3 NaGTP, and 20 mM HEPES (pH=7.2), adjusted to approximately 290 m0sm with deionized water and the EC solution. Cells were added to the prepared QPlate wells by robotic pipettes of the QPatch-HT.
# For cells determined to be in stable whole-cell patch clamp, the EC solution was replaced with a barium (Ba)/triethylammonium (TEA) solution containing 140 mM TEA-Cl, 10 mM BaCl2, 0.8 mM MgCl2, 10 mM glucose and 10 mM HEPES (pH=7.4). High (40 mM) BaCl2 concentrations were made with adjustments to TEA-Cl (90 mM) to maintain the osmolarity. From a resting potential of −80 mV, a train of depolarizing pulses (15 pulses at 5 Hz, +20 mV) was delivered to the cell once every 30 sec for […], and the resulting currents were measured during a control period (no compound). This protocol was repeated for each subsequent addition of control buffer with or without compound (three periods total, each with four trains). The current generated in the 1st and 15th pulses of the last train of each period in the presence of each drug concentration was normalized to the current generated during the control period at the respective pulses (representing low- and high-frequency stimulation, respectively). Data from both the second and third drug application periods were analyzed for each cell. A final addition of Ba/TEA solution containing 60-100 μM CdCl2 was made to block all N-type current and to “zero” the currents for each cell. All buffer/compound additions were made using a “spitting” feature of the QPatch-HT, which added three repetitions of 5 μL solution at the beginning of each recording period.
# To examine closed-state inactivation, cells were subjected to a channel-activating 50-msec depolarizing step pulse from −80 to +10 mV, followed by a 5-sec nonactivating step to voltages ranging from −130 to −60 mV in 10 mV increments and then a 50-ms step from −80 to +10 mV to assess the remaining current. Currents from the activating voltage pulse were normalized to the peak value of the test pulse following the −130 mV step and fit to a Boltzman equation to obtain the V1/2. Roscovitine (Sigma-Aldrich) was prepared as a 100 mM stock in dimethyl sulfoxide and diluted to the indicated working concentrations. […]. Compounds of Formula (I) were diluted first into dimethyl sulfoxide and then into 10% pluronic F-127 in water (Life Technologies), sonicated for 1 min and diluted into EC buffer. Vehicle controls were run in parallel in all experiments.
# Unless otherwise indicated, statistics for comparing among electrophysiological results utilized a one-way analysis of variance with Fisher's least squares determination test for pair-wise comparison.
# [2] = tested on: CFA-induced thermal hyperalgesia; experiment: Complete Freund's Adjuvant (CFA)-induced hyperalgesia, radiant heat; format: in vivo, Sprague-Dawley rats; settings: FIG. 1, numbers not given
# [3] = high-frequency stimulation (15th pulse of train, 5 Hz), read-out: QPatch at High Frequency % Inhibition at 0.1 μM
# [4] = low-frequency stimulation (1st pulse of train), read-out: QPatch at Low Frequency % Inhibition at 0.1 μM
# Chain of N-type calcium channel (Q00975 whole entry): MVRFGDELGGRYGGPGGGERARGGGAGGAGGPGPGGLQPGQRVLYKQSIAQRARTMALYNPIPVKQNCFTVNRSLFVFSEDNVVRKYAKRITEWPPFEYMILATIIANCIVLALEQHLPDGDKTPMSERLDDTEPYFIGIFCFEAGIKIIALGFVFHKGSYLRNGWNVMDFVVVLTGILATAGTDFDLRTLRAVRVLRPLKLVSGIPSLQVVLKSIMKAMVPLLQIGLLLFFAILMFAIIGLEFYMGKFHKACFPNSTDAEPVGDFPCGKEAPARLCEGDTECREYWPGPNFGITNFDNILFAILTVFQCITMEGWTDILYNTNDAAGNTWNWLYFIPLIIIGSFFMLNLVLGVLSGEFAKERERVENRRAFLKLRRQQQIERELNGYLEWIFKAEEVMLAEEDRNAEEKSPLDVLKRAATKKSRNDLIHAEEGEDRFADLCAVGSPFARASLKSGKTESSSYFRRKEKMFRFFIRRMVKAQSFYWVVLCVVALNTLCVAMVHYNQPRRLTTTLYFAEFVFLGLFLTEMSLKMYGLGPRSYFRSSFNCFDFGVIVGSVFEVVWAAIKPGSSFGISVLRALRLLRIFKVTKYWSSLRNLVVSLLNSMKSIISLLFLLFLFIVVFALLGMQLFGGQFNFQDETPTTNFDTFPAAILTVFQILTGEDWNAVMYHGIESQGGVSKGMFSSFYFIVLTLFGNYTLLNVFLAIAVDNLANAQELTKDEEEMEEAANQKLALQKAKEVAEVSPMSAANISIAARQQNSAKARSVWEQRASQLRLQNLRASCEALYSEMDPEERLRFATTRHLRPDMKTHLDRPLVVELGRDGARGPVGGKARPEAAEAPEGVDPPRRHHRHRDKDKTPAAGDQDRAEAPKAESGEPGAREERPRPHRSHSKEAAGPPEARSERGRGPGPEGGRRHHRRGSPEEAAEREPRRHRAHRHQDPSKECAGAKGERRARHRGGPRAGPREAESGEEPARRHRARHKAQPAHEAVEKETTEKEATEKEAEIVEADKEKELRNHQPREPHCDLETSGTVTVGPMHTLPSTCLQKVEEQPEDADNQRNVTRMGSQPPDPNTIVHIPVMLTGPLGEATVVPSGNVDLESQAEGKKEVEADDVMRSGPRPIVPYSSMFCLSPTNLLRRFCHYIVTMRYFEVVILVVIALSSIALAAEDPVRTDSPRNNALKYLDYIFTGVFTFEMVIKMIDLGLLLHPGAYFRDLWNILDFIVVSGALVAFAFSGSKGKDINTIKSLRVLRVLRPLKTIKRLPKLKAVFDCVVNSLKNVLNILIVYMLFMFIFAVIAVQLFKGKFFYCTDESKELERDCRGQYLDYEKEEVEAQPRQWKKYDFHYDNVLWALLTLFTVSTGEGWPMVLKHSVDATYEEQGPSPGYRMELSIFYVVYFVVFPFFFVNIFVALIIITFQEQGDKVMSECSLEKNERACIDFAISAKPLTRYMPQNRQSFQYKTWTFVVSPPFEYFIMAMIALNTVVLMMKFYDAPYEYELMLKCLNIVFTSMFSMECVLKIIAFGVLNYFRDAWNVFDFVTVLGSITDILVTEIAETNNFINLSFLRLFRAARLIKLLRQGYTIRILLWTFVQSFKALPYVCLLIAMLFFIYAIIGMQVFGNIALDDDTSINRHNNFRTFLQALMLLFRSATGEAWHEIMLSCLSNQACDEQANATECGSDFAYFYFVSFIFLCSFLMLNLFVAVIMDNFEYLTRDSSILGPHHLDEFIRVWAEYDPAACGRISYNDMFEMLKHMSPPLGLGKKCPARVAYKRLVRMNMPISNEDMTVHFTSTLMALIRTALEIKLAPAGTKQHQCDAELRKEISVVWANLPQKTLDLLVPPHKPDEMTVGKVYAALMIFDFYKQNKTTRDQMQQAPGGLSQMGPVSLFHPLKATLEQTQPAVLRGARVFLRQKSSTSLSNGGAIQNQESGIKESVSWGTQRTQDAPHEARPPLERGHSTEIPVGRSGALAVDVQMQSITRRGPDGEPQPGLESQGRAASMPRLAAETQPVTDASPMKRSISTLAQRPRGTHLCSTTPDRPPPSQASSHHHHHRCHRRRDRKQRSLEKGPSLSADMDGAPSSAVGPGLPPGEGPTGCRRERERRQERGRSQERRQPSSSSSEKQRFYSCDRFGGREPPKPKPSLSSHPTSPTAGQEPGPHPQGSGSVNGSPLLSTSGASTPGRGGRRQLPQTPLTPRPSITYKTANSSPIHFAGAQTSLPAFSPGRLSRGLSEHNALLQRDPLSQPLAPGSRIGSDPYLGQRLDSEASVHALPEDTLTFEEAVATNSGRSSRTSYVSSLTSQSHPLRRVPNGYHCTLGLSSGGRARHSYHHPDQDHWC
# Chain of N-type calcium channel (P54284 whole entry partner): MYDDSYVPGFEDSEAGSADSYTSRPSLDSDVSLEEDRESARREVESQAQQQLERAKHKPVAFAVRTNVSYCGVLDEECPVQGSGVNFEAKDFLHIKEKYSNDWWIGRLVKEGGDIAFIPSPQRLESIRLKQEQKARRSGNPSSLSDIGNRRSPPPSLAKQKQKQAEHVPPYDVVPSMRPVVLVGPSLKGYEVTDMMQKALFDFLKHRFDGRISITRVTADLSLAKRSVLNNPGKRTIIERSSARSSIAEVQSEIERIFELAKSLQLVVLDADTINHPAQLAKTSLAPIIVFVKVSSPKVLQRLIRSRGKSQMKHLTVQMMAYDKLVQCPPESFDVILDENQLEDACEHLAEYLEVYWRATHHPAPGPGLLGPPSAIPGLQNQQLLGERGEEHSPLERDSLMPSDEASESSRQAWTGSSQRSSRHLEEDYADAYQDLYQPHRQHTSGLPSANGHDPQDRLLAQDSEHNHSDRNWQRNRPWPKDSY
# Chain of N-type calcium channel (P54289 25-1103 partner): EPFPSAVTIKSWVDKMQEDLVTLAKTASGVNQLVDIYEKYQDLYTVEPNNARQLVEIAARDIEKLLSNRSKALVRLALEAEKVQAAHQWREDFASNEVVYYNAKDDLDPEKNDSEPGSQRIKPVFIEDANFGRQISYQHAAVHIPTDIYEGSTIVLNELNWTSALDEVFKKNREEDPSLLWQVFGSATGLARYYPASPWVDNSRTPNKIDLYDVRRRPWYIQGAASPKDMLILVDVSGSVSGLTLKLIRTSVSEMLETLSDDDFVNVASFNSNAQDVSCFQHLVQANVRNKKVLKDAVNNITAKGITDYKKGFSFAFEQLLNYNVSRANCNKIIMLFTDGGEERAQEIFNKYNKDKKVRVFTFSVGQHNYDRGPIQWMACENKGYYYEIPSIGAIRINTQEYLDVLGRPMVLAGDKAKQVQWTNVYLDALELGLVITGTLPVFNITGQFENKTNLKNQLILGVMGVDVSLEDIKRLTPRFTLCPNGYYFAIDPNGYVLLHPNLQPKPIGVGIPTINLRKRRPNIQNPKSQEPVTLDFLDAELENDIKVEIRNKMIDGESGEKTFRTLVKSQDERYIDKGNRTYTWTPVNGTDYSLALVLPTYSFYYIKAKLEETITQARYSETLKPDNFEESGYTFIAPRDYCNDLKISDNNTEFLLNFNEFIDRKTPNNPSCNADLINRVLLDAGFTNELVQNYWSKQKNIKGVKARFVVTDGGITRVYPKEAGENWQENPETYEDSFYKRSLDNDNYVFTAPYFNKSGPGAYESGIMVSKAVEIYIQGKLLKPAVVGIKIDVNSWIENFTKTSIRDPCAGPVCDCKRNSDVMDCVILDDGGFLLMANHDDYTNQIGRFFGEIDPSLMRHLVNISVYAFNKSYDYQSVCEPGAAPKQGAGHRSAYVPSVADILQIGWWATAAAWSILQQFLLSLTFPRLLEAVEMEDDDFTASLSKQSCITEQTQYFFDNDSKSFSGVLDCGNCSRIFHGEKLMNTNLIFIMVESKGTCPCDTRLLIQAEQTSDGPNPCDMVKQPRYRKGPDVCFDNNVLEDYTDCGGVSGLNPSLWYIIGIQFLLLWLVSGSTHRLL
# Chain of N-type calcium channel (α1B (Cav2.2), β3 and α2δ subunits) in stable HEK cell line (Q00975 whole entry): as the sequence (Q00975 whole entry) above
# Chain of N-type calcium channel (α1B (Cav2.2), β3 and α2δ subunits) in stable HEK cell line (P54284 whole entry partner): as the sequence (P54284 whole entry partner) above
# Chain of N-type calcium channel (α1B (Cav2.2), β3 and α2δ subunits) in stable HEK cell line (P54289 25-1103 partner): as the sequence (P54289 25-1103 partner) above
SMILES,inhibition at 0.33 µM [1],IC50 [1],inhibition at 0.1 µM (N-type calcium channel; [3]),inhibition at 0.1 µM (N-type calcium channel; [4]),effect in rat CFA radiant heat model of inflammatory pain [2]
"COc1ccccc1-n1nc(OC2CCN(S(=O)(=O)C(C)C)CC2)cc1-c1ccc(Cl)cc1 [Compound 21, 4-{[5-(4-Chlorophenyl)-1-(2-methoxyphenyl)-1H-pyrazol-3-yl]oxy}-1-[(1-methylethyl)sulfonyl]piperidine]",95%,36 nM,23%,15%,–
"COc1ccccc1-n1nc(OC2CN(S(C)(=O)=O)C2)cc1-c1ccc(Cl)cc1 [Compound 26, 5-(4-Chlorophenyl)-1-(2-methoxyphenyl)-3-{[1-(methylsulfonyl)azetidin-3-yl]oxy}-1H-pyrazole]",91%,31 nM,40%,37%,–
"COc1ccccc1-n1nc(OC2CC(C)(C)OC(C)(C)C2)cc1-c1ccc(Cl)cc1 [Compound 23, 5-(4-chlorophenyl)-1-(2-methoxyphenyl)-3-((2,2,6,6-tetramethyltetrahydro-2H-pyran-4-yl)oxy)-1H-pyrazole]",96%,7.6 nM,37%,11%,antihyperalgesic effect
"COc1ccccc1-n1nc(OC2CN(C(=O)N(C)OC)C2)cc1-c1ccc(Cl)cc1 [Compound 29, 3-{[5-(4-Chlorophenyl)-1-(2-methoxyphenyl)-1H-pyrazol-3-yl]oxy}-N-methoxy-N-methylazetidine-1-carboxamide]",94%,14 nM,1%,-24%,–
"COc1ccc(-c2cc(OC3CC(C)(C)OC(C)(C)C3)nn2-c2ccccc2OC)cc1 [Compound 31, 1-(2-Methoxyphenyl)-5-(4-methoxyphenyl)-3-[(2,2,6,6-tetramethyltetrahydro-2H-pyran-4-yl)oxy]-1H-pyrazole]",97%,9.4 nM,44%,28%,–
"CC(C)Oc1ccccc1-n1nc(OC2CCN(S(C)(=O)=O)CC2)cc1-c1ccc(Cl)cc1 [Compound 20, 4-({5-(4-Chlorophenyl)-1-[2-(1-methylethoxy)phenyl]-1H-pyrazol-3-yl}oxy)-1-(methylsulfonyl)piperidine]",–,21.5 nM,37%,24%,–
"COc1ccccc1-n1nc(OC2CCN(S(=O)(=O)C3CC3)CC2)cc1-c1ccc(Cl)cc1 [Compound 15, 4-{[5-(4-Chlorophenyl)-1-(2-methoxyphenyl)-1H-pyrazol-3-yl]oxy}-1-(cyclopropylsulfonyl)piperidine]",–,9 nM,55%,25%,–
"COc1ccccc1-n1nc(OC2CN(S(=O)(=O)c3c(C)noc3C)C2)cc1-c1ccc(Cl)cc1 [Compound 30, 4-[(3-{[5-(4-Chlorophenyl)-1-(2-methoxyphenyl)-1H-pyrazol-3-yl]oxy}azetidin-1-yl)sulfonyl]-3,5-dimethylisoxazole]",93%,8 nM,53%,30%,–
